Experimental data as given in patent US9127164B2, “Fluorescent dyes and uses thereof” (ALMAC SCIENCES (SCOTLAND) LIMITED, priority 2005, dated 2015).
Read-outs that look alike come from different tables or passages of the source. Each block holds one molecule with its values, some of them ahead of it. Peptide text beside a SMILES is read from it. * marks the point of attachment. Propanoyl(3-(9AA-2-yl)) = Nc1c2ccccc2nc2ccc(CCC(=O)*)cc12

Experiments:
[1] = Fluorescence emission spectra / intensity; type: physicochemical; conditions: for Relative intensity Ex405 nm, Emmax: relative to 9-aminoacridine = 1; for fluorescence emission intensity compared with N-methyl acridone: excitation at 405 nm, 140 mM NaCl, 10 mM phosphate buffer pH 7.4
Procedure: Fluorescence emission spectra of 10-methyl-9(10H)-thioacridone (N-methyl thioacridone) and 10-methyl-9(10H)-acridone (N-methylacridone) in 140 mM NaCl, 10 mM phosphate buffer pH 7.4 upon excitation at 405 nm, were obtained. The thioacridone concentration is 500 nM and the 10-methyl-9(10H)-acridone (N-methylacridone) concentration is 100 nM.
Fluorescence emission spectra of 9-aminoacridine and 10-methyl-9(10H)-acridone (N-methylacridone) upon excitation at 405 nm. Both compounds at a concentration of 100 nM in 140 mM NaCl, 10 mM phosphate buffer pH 7.4, were obtained.
Fluorescence emission spectrum of (Acridin-9-ylamino)acetic acid ethyl ester at 100 nM concentration in 140 mM NaCl, 10 mM phosphate buffer pH 7.4 upon excitation at 405 nm is shown in FIG. 4.

[2] = Fluorescence lifetime by time-correlated single photon counting (Edinburgh Instruments FLS920); type: physicochemical; conditions: for Lifetime (ns): Table 2, 9-aminoacridine derivatives; for Fluorescence Lifetime (nsecs) in PBS pH 7.4: excited at 405 nm, detection at 450 nm, 10 mM phosphate buffered saline pH 7.4; for Lifetime* (ns): Table 3, molecules synthesised
Procedure: Fluorescence lifetimes were determined by time-correlated single photon counting using an Edinburgh Instruments FLS920 fluorimeter. Samples were excited at 405 nm with detection at 450 nm. Measurements were recorded in 10 mM phosphate buffered saline pH 7.4.
Excitation wavelength 405 nm and emission wavelength 450 nm.

[3] = Fluorescence emission spectra / intensity; type: physicochemical
[4] = molecular target: T1, Caspase-3 recombinant enzyme (Homo sapiens, UniProt P42574); assay: Fluorescence lifetime based Caspase-3 cleavage assay of dye-labelled DEVDSW peptide; type: biochemical; conditions: 1 uM substrate
T1 construct: purchased Calbiochem
T1 sequence (P42574 29-175 limits assumed): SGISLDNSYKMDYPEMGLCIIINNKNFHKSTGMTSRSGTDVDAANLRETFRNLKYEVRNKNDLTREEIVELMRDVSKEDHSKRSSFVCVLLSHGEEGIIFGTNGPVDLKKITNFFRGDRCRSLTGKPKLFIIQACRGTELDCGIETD
T1 sequence (P42574 176-277 limits assumed): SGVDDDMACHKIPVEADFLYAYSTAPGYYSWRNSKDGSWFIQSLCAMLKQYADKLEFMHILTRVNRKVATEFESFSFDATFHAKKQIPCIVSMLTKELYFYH
Procedure: The 9-aminoacridine labelled peptide substrate, AA-DEVDSW (1 uM concentration in […] buffer pH 7.4 containing 10% sucrose, 0.1% CHAPS, 100 mM NaCl, 1 mM EDTA, 10 mM DTT) was employed in a biochemical assay using Caspase-3 recombinant enzyme (50 U and 20 U) at 30° C. The assay mixture was analysed at time intervals using an Edinburgh Instruments Fluorescence Lifetime Plate Reader. […] The data could also be easily viewed as a change in percentage cleavage over time, confirming that the reaction was progressing to completion after 90 minutes when 50 units of caspase 3 was employed (see FIGS. 8 and 9).
• Buffer: 20 mM HEPES buffer pH7.4 containing 10% sucrose, 0.1% CHAPS, 100 mM NaCl, 1 mM EDTA, 10 mM DTT • Substrate solution: 10 uM 3-(9-aminoacridin-2-yl) propionyl-DEVDSW in buffer. • Product solution: 10 uM 3-(9-aminoacridin-2-yl) propionyl-DEVDSK in buffer. • Enzyme solution: 10 U/ul in buffer. Procedure
To the well of a 96-well plate was added buffer (88 ul), substrate solution (10 ul, 1 uM final conc.) and enzyme (2 ul for 20 U). Reactions were performed in triplicate and also at varying enzyme concentrations. The reaction progress was followed at time intervals using an Edinburgh Instruments Fluorescence Lifetime Plate Reader against wells containing product and substrate standards.
The partially quenched 9-aminoacridine-labelled peptide substrate, 3-(9-aminoacridin-2-yl) propionyl-DEVDSW, was employed in a biochemical enzymatic cleavage assay using recombinant Caspase-3 enzyme purchased from Calbiochem. The assay was carried out using 1 uM substrate concentration in 20 mM HEPES buffer pH 7.4 containing 10% sucrose, 0.1% CHAPS, 100 mM NaCl, 1 mM EDTA, 10 mM DTT, in the presence of either 20 or 50 units of enzyme (100 ul final volume). The assay mixture was analysed at time intervals using an Edinburgh Instruments Fluorescence Lifetime Plate Reader. […] The deviation in fluorescence lifetime from that stated above was a consequence of the buffer system.

[5] = 20 mM HEPES buffer pH 7.4, 20 or 50 units of enzyme

Relative intensity Ex405 nm, Emmax [1]: 1 | fluorescence emission intensity compared with N-methyl acridone [1]: considerably brighter | Lifetime (ns) [2]: 15 ns | Fluorescence Lifetime (nsecs) in PBS pH 7.4 [2]: 16.0 nsecs
SMILES: Nc1c2ccccc2nc2ccccc12 [Number 1, 9-aminoacridine, reference compound]

SMILES: CC(C)[C@H](NC(=O)[C@H](CCC(=O)O)NC(=O)[C@H](CC(=O)O)NC(=O)CCc1ccc2nc3ccccc3c(N)c2c1)C(=O)N[C@@H](CC(=O)O)C(=O)N[C@@H](CO)C(=O)N[C@@H](CCCCN)C(=O)O [3-(9-Amino-acridin-2-yl)-propionyl-DEVDSK] ({Propanoyl(3-(9AA-2-yl))}-DEVDSK-OH)
fluorescence properties (emission spectrum, intensity, lifetime) compared with 9-aminoacridine [1]: comparable emission spectrum and fluorescence intensity to that of 9-aminoacridine | fluorescence lifetime [2]: 17.7 ns | Lifetime* (ns) [2]: 17.7 ns

fluorescence properties (emission spectrum, intensity, lifetime) compared with 9-aminoacridine [1]: comparable to the parent 9-aminoacridine | Lifetime* (ns) [2]: 17.0 ns
SMILES: Nc1c2ccccc2nc2ccc(CCC(=O)O)cc12 [3-(9-amino-acridin-2-yl)-propionic acid]

Fluorescence Lifetime (nsecs) in PBS pH 7.4 [2]: 13.9 nsecs
SMILES: Cn1c2ccccc2c(=O)c2ccccc21 [N-methyl acridone, 10-methyl-9(10H)-acridone, reference compound]

fluorescence properties (emission spectrum, intensity, lifetime) compared with 9-aminoacridine [1]: comparable to the parent 9-aminoacridine | Lifetime* (ns) [2]: 16.7 ns
SMILES: CC(C)(C)OC(=O)CCc1ccc2nc3ccccc3c(N)c2c1 [3-(9-amino-acridin-2-yl)-propionic acid tert-butyl ester]

Lifetime* (ns) [2]: 11.2 ns
SMILES: CC(C)(C)OC(=O)/C=C/c1ccc2nc3ccccc3c(N)c2c1 [3-(9-Amino-acridin-2-yl)-acrylic acid tert-butyl ester]

fluorescence emission intensity compared with N-methyl acridone [1]: considerably less fluorescent
SMILES: Cn1c2ccccc2c(=S)c2ccccc21 [N-methyl thioacridone, 10-methyl-9(10H)-thioacridone, reference compound]

Relative intensity Ex405 nm, Emmax [1]: Not fluorescent | Lifetime (ns) [2]: multiexponential
SMILES: CC(=O)Nc1ccc2nc3ccc(N)cc3c(N)c2c1 [Number 7]

fluorescence lifetime ([2]; Excitation wavelength 405 nm and emission wavelength 450 nm): 14.9 ns
SMILES: CCOC(=O)CNc1c2ccccc2nc2ccccc12 [(Acridin-9-ylamino)acetic acid ethyl ester]

fluorescence lifetime of reaction mixture after cleavage [4, 5]: 15.5 ns | fluorescence lifetime of reaction mixture at start of reaction [4, 5]: 8.5 ns | time at which cleavage reaction was progressing to completion ([4]; 50 units of caspase 3 enzyme, 20 mM HEPES buffer pH 7.4): 60 min
SMILES: CC(C)[C@H](NC(=O)[C@H](CCC(=O)O)NC(=O)[C@H](CC(=O)O)NC(=O)CCc1ccc2nc3ccccc3c(N)c2c1)C(=O)N[C@@H](CC(=O)O)C(=O)N[C@@H](CO)C(=O)N[C@@H](Cc1c[nH]c2ccccc12)C(=O)O [3-(9-Amino-acridin-2-yl)-propionyl-DEVDSW] ({Propanoyl(3-(9AA-2-yl))}-DEVDSW-OH)
fluorescence lifetime [2]: 7.6 ns | Lifetime* (ns) [2]: 7.7 ns | fluorescence intensity quenched by tryptophan ([3]; tryptophan (W) containing labelled peptide versus lysine (K) containing labelled peptide): 75%

Relative intensity Ex405 nm, Emmax [1]: Not fluorescent | Lifetime (ns) [2]: Not fluorescent | fluorescence (in words) ([3]; free amino dye, no acetylation): non-fluorescent
SMILES: Nc1ccc2nc3ccccc3c(N)c2c1 [Number 6]
